The results in this text go back to patent US11584801B2, “Anti-5T4 antibodies and antibody-drug conjugates” (Byondis B.V., priority 2015, dated 2023).

One data set concerns PA-1 cells. Description: In vitro cytotoxicity in PA-1 cells. The format is cell-based, human.
The next data set concerns MDA-MB-468 cells. Description: In vitro cytotoxicity in MDA-MB-468 cells. In kind it is cell-based, human.
Data set [1] can be described thus: Hydrophobicity by analytical HIC. In kind it is physicochemical. How it is done:
For analytical HIC, 5-10 μl of sample (1 mg/ml) was injected onto a TSKgel Butyl-NPR column (4.6 mm ID×3.5 cm L, Tosoh Bioscience, cat. nr. 14947). The elution method consisted of a linear gradient from 100% Buffer A (25 mM sodium phosphate, 1.5 M ammonium sulphate, pH 6.95) to 100% of Buffer B (25 mM sodium phosphate, pH 6.95, 20% isopropanol) at 0.4 ml/min over 20 minutes. A Waters Acquity H-Class UPLC system equipped with PDA-detector and Empower software was used. Absorbance was measured at 214 nm and the retention time of ADCs was determined.

As usually defined, the IC50 is the point on the concentration scale where inhibition reaches its midpoint. A lower IC50 goes with greater potency.

For “Rituximab-vc-seco-DUBA: non-binding control ADC”, the IC50 came to 8.32 nM in the data set on PA-1 cells and 32.9 nM in the data set on MDA-MB-468 cells. Also, the “MDA-MB-468 Efficacy” value in the data set with MDA-MB-468 cells amounted to 91%.

B1: 899 chimeric (conjugate)
VH: QSVEESGGRLVTPGTPLTLTCTVSGFSLSSYTMSWVRQACGKGLEYIGIISSSDGTWYANWVKGRFTISKTSTTVDLKMTSLTTEDTATYFCARDGTGNKYYTWDRLDLWGQGTLVTVSS
VL: NIVMTQTPSPVSGAVGGTVTINCQASQSIYNELSWYQQKPGQPPKLLIYYASTLASGVSSRFKGSGSGTQFTLTISGVESVDAATYYCQQGYSSSNVDNVFGGGTEVVVK
In data set [1] (analytical HIC retention time of DAR0 species), B1 came in with an RTDAR0 of 6.5. For the same molecule, the RTDAR2 in data set [1] (analytical HIC retention time of DAR2 species) is 10.3. For the same molecule, the “RTDAR2 − RTDAR0” value in data set [1] (increase in HIC retention time upon conjugation of two linker drugs) amounted to 3.8.
